pKi: −log10 of the molar value. Where two headings read alike, the source gives them in different places. A value given as a limit tells only on which side of the number the result lay.

The target in experiment [1] is T1, human ETA receptor (Homo sapiens, UniProt P25101).
T1 construct: expressed in transfected cells; host or cells: CHO cells
T1 sequence (P25101 21-427): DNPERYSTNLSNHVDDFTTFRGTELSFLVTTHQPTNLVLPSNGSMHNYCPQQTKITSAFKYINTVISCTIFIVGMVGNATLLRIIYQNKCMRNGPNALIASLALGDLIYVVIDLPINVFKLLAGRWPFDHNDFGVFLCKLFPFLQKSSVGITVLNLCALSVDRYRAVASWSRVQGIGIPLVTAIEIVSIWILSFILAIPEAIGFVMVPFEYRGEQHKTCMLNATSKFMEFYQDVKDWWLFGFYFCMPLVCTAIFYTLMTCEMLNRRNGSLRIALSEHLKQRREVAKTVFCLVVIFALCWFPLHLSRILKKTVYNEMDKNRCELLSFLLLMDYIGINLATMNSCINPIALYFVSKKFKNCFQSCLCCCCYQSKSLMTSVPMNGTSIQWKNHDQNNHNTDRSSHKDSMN
As to the kind of experiment: Receptor binding assay, ETA ([125I]-ET1, membranes of ETA receptor-expressing CHO cells). How it is done: (§1) Cloned human ETA receptor-expressing CHO cells and guinea pig cerebellar membranes with >60% ETB compared with ETA receptors were used for binding studies.
The ETA receptor-expressing CHO cells were grown in F12 medium containing 10% fetal calf serum, 1% glutamine, 100 E/ml penicillin and 0.2% streptomycin (Gibco BRL, Gaithersburg, Md., USA). After 48 h, the cells were washed with PBS and incubated with 0.05% trypsin-containing PBS for 5 min. Neutralization was then carried out with F12 medium and the cells were collected by centrifugation at 300×g. To lyse the cells, the pellet was briefly washed with lysis buffer (5 mM tris-HCl, pH 7.4 with 10% glycerol) and then incubated at a concentration of 10^7 cells/ml of lysis buffer at 4° C. for 30 min. The membranes were centrifuged at 20,000×g for 10 min, and the pellet was stored in liquid nitrogen.
(§2) The nonspecific binding was determined with 10^-7 M ET1. After 30 min, filtration was carried out through GF/B glass fiber filters (Whatman, England) in a Skatron cell collector (Skatron, Lier, Norway) to separate free and bound radioligands, and the filters were washed with ice-cold tris-HCl buffer, pH 7.4 with 0.2% BSA. The radioactivity collected on the filters was quantified using a Packard 2200 CA liquid scintillation counter.

The target in experiment [2] is T2, ETB receptor (Cavia porcellus, UniProt H0VTF3).
T2 construct: Guinea pig cerebella were homogenized in a Potter-Elvejhem homogenizer; from tissue; host or cells: guinea pig cerebellum (membranes)
T2 sequence (H0VTF3 27-415): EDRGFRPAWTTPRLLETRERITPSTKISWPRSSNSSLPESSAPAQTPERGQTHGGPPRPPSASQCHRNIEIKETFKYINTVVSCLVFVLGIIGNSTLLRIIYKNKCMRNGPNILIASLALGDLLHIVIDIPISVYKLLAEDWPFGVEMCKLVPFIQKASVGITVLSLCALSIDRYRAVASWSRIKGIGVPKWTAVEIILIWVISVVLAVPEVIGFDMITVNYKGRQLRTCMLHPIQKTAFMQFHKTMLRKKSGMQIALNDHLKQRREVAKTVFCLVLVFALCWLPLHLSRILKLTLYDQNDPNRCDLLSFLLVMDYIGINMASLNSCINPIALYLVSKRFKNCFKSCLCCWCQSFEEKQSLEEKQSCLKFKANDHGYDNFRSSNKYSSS
The experiment in a line: Receptor binding assay, ETB ([125I]-RZ3, guinea pig cerebellar membranes). The method, then:
as §1
Guinea pig cerebella were homogenized in a Potter-Elvejhem homogenizer and were obtained by differential centrifugation at 1,000×g for 10 min and repeated centrifugation of the supernatent at 20,000×g for 10 min.
as §2

Setting [3] is: cloned human ETA receptor-expressing CHO cell membranes, 25 pM [125I]-ET1, 30 min, read-out: Receptor binding data (Ki values) ETA.
The mark [4] stands for this setting: guinea pig cerebellar membranes (>60% ETB compared with ETA receptors), 25 pM [125I]-RZ3, 30 min, read-out: Receptor binding data (Ki values) ETB.

On to `COC(c1ccccc1)(c1ccccc1)C(Oc1cc(C(F)(F)F)nc(C(C)(C)C)n1)C(=O)O` (centres unmarked) [Compound I-91, 2-(2-tert-Butyl-6-trifluoromethyl-4-pyrimidinyloxy)-3-methoxy-3,3-diphenylpropionic acid], for which the pKi – broadly, the negative decadic logarithm of the Ki, by convention in mol/L – in experiment [1] (setting [3]) was 5.48; in experiment [2] (setting [4]), below 5.00.

On to `COC(c1ccccc1)(c1ccccc1)C(Oc1cc(C)c2ccccc2n1)C(=O)O` (centres unmarked) [Compound I-166, 2-(4-Methyl-2-quinolinyloxy)-3-methoxy-3,3-diphenylpropionic acid], for which the negative logarithm of the Ki (pKi) in experiment [1] (setting [3]) is 6.30; in experiment [2] (setting [4]), 5.40.

`COC(c1ccccc1)(c1ccccc1)C(Oc1ccc2ccccc2n1)C(=O)O` (centres unmarked) [Compound I-167]: the figures for the pKi in experiment [1] (setting [3]) and in experiment [2] (setting [4]) were 5.52 and below 5.15, respectively.

For the molecule `COc1cc(OC(C(=O)O)C(OC)(c2ccccc2)c2ccccc2)nc(OC)n1` (centres unmarked) [Compound I-1, 2-(2,6-Dimethoxy-4-pyrimidinyloxy)-3-methoxy-3,3-diphenyl-propionic acid], the negative logarithm of the Ki (pKi) in experiment [1] is 7.42; in experiment [2], 5.10.

(Values after US6103732A, “Carboxylic acid derivatives, their production and use” (BASF Aktiengesellschaft, priority 1996, dated 2000).)
